Reference: US20040116436A1, “Treatment of dementia and parkinson's disease” (priority 2002, published 2004)
Like-named read-outs stand apart in the source and are kept apart here.

How the values were obtained:
[1] = in vivo, ip
alpha 2C receptor = alpha 2C receptor (Homo sapiens, UniProt P18825); experiment: cell-based
From the text: (§1) In contrast, a method for measuring alpha receptor agonist selectivity comprises the RSAT (Receptor Selection and Amplification Technology) assay as reported in Messier et al., High Throughput Assays Of Cloned Adrenergic, Muscarinic, Neurokinin And Neurotrophin Receptors In Living Mammalian Cells, Pharmacol. Toxicol. 76:308-11 (1995) and has been adapted for use with alpha 2 receptors. This publication is incorporated by reference herein. The assay measures a receptor-mediated loss of contact inhibition that results in selective proliferation of receptor-containing cells in a mixed population of confluent cells. The increase in cell number is assessed with an appropriate transfected marker gene such as b-galactosidase, the activity of which can be easily measured in a 96-well format. Receptors that activate the G protein, Gq, elicit this response. Alpha2 receptors, which normally couple to Gi, activate the RSAT response when coexpressed with a hybrid Gq protein that has a Gi receptor recognition domain, called Gq/i5^2. See Conklin et al., Substitution Of Three Amino Acids Switches Receptor Specificity Of Gqa To That Of Gia, Nature 363:274-6. (1993) This reference is hereby incorporated by reference herein.
(§2) The data presented below was collected using the RSAT assay described above.
(§3) Efficacy of a given receptor or receptor subtype in accordance with the present invention is determined using the RSAT assay procedure described above.

alpha 2B receptor = alpha 2B receptor (Homo sapiens, UniProt P18089); experiment: cell-based
From the text: as §1, §2, §3

[2] = test system: dopaminergic neurons in the substantia nigra
[3] = From the text: 30 C57B1/B6 type mice (8-12 weeks old) are allowed to acclimate for 12-14 days before experimental use.
[4] = test system: dopaminergic neurons in the ventral tegmental area; settings: MPTP mice; brimonidine 3 mg/kg/day
alpha 1A receptor = alpha 1A receptor (Homo sapiens, UniProt P35348); settings: RSAT assay; alpha 2 subtypes versus alpha 1A

Row | SMILES | concentration at which sedative effect first becomes noticeable [1] | EC50 (alpha 2C receptor) [nM] | EC50 (alpha 2B receptor) [nM] | neuron loss in the substantia nigra versus MPTP-treated animals ([2]; MPTP mice, brimonidine 3 mg/kg/day) | Average Neuron Count (statistical error) ([2]; substantia nigra, TH-labeled neurons, 55-60 days post MPTP 40 mg/kg sc, brimonidine 3 mg/kg/day sc mini-pump 14 days) | Open Field activity versus vehicle + MPTP group ([3]; 10 and 30 days post MPTP, brimonidine 3 mg/kg/day) | forelimb extension impairment, tail hang test ([3]; during the period that the compound is administered) | forelimb extension impairment, tail hang test ([3]; post-dosing (after 14 days of compound administration)) | reduction of MPTP-induced neuron loss in the Ventral Tegmental area [4] | greater activity at each alpha 2 receptor subtype than at the alpha 1A receptor (alpha 1A receptor)
1 | Clc1ccc2nsnc2c1NC1=NCCN1 [Tizanidine, tizanidine] | about 100 micrograms/kg | 1690 | 127 |  |  |  |  |  |  | 
2 | Cc1cccc([C@H](C)c2cnc[nH]2)c1C [Dexmedetomidine, dexmedetomidine] |  | 1 | 2 |  |  |  |  |  |  | 
3 | Brc1c(NC2=NCCN2)ccc2nccnc12 [Brimonidine, brimonidine] |  |  |  | significantly less neuron loss | 32 (±1) | no significant difference between this group and the vehicle group | does not reduce this impairment | does tend to reduce the impairment | about 10% | at least 5.5 fold
